9 compounds from ChEMBL document CHEMBL3608244, “Left-Hand Side Exploration of Novel Bacterial Topoisomerase Inhibitors to Improve Selectivity against hERG Binding” (ACS Med Chem Lett, 2015) can be followed below.

Format in all cases: functional
In assay [1] the test system is Mycobacterium tuberculosis. As to the kind of experiment: Antimycobacterial activity against 1-(2-(4-((5-chloro-6-methylpyridin-3-yl)methylamino)piperidin-1-yl)ethyl)-7-fluoro-1,5-naphthyridin-2(1H)-one resistant Mycobacterium tuberculosis H37Rv harboring DNA gyraseA D89N mutant incubated for 7 days by microdilution method.
Assay [2] relates to Mycobacterium tuberculosis. As to the kind of experiment: Antimycobacterial activity against 6-((1-(2-(7-chloro-2-oxo-1,8-naphthyridin-1(2H)-yl)ethyl)piperidin-4-ylamino)methyl)-2H-pyrido[3,2-b][1,4]oxazin-3(4H)-one resistant Mycobacterium tuberculosis H37Rv harboring DNA gyraseA A74V mutant incubated for 7 days by microdilution method.
For assay [3], the system named is Mycobacterium tuberculosis. As to the kind of experiment: Antimycobacterial activity against moxifloxacin resistant Mycobacterium tuberculosis H37Rv harboring DNA gyraseA G88N mutant incubated for 7 days by microdilution method.
Assay [4] has as its system Mycobacterium tuberculosis. In words: Ratio of MIC for 6-((1-(2-(7-chloro-2-oxo-1,8-naphthyridin-1(2H)-yl)ethyl)piperidin-4-ylamino)methyl)-2H-pyrido[3,2-b][1,4]oxazin-3(4H)-one resistant Mycobacterium tuberculosis H37Rv harboring DNA gyraseA A74V mutant to MIC for Mycobacterium tuberculosis H37Rv ATCC 27294.
The subject of assay [5] is Mycobacterium tuberculosis. In words: Ratio of MIC for 1-(2-(4-((5-chloro-6-methylpyridin-3-yl)methylamino)piperidin-1-yl)ethyl)-7-fluoro-1,5-naphthyridin-2(1H)-one resistant Mycobacterium tuberculosis H37Rv harboring DNA gyraseA D89N mutant to MIC for Mycobacterium tuberculosis H37Rv ATCC 27294.

Converted amounts (≈) assume the structure as drawn.

For the compound `O=C1COc2ccc(CNC3CCN(CCn4c(=O)ccc5ccc(Oc6cncnc6)nc54)CC3)nc2N1`, the values for the minimal inhibitory concentration (MIC) in assay [1], in assay [2] and in assay [3] were >100 µM, 50 µM (≈ 26.4 µg/mL) and 0.06 µM (≈ 0.0317 µg/mL), respectively. The Ratio in assay [4] and in assay [5] was >25 each time.
Turning to `O=C1COc2ccc(CN[C@@H]3CCN(CCn4c(=O)ccc5ncc(Oc6cccnc6)cc54)C[C@@H]3F)nc2N1`, the minimum inhibitory concentration (MIC) in assay [1] is >100 µM; in assay [2], 50 µM (≈ 27.3 µg/mL); in assay [3], 0.39 µM (≈ 0.213 µg/mL).
For the compound `O=C1COc2ccc(CNC3CCN(CCn4c(=O)ccc5ccc(Cl)nc54)CC3)nc2N1`, the minimal inhibitory concentration (MIC) is >100 µM in assay [1], 4 µM (≈ 1.88 µg/mL) in assay [2] and <0.19 µM in assay [3].
For the compound `Cc1ncc(CNC2CCN(CCn3c(=O)ccc4ncc(F)cc43)CC2)cc1Cl`, the MIC in assay [1] was >100 µM; in assay [2], 2 µM (≈ 0.86 µg/mL); in assay [3], <0.19 µM.
With `O=C1COc2ccc(CNC3CCN(CCn4c(=O)ccc5ccc(Oc6cccnc6)nc54)CC3)nc2N1`, the minimal inhibitory concentration (MIC) in assay [1] was >100 µM; in assay [2], 8 µM (≈ 4.22 µg/mL); in assay [3], 0.78 µM (≈ 0.412 µg/mL). The Ratio in assay [4] and in assay [5] was >25 each time.
Consider `O=C(O)c1cn(C2CC2)c2cc(N3CCNCC3)c(F)cc2c1=O` [CIPROFLOXACIN], for which the MIC in assay [1] was 16 µM (≈ 5.3 µg/mL); in assay [2], 0.5 µM (≈ 0.166 µg/mL); in assay [3] it was 8 µM (≈ 2.65 µg/mL).
For the compound `NNC(=O)c1ccncc1` [ISONIAZID], the figures for the MIC in assay [1], in assay [2] and in assay [3] were 0.03 µM (≈ 0.00411 µg/mL), 0.06 µM (≈ 0.00823 µg/mL) and 0.06 µM (≈ 0.00823 µg/mL), respectively.
With `COc1c(N2C[C@@H]3CCCN[C@@H]3C2)c(F)cc2c(=O)c(C(=O)O)cn(C3CC3)c12` [MOXIFLOXACIN], the values for the MIC in assay [1], in assay [2] and in assay [3] were 2 µM (≈ 0.803 µg/mL), 0.25 µM (≈ 0.1 µg/mL) and 4 µM (≈ 1.61 µg/mL), respectively.
For the compound `CO[C@H]1/C=C/O[C@@]2(C)Oc3c(C)c(O)c4c(O)c(c(/C=N/N5CCN(C)CC5)c(O)c4c3C2=O)NC(=O)/C(C)=C\C=C\[C@H](C)[C@H](O)[C@@H](C)[C@@H](O)[C@@H](C)[C@H](OC(C)=O)[C@@H]1C` [RIFAMPIN], the MIC in assay [2] and in assay [3] was 0.008 µM (≈ 0.00658 µg/mL) each time.
